Columns and labels:
ROCK II [1] = test: Western blotting of ROCK II expression in isolated rat pulmonary artery ring, short-term (acute) hypoxia or normoxia; format: cell-based; details: for ROCK II expression, Pulmonary Artery Ring: acute hypoxia, Normoxia 100, Hypoxia 560 ± 21
Procedure: (§1) In our in vitro short-term experiment, isolated rat pulmonary artery was grown under normoxia (20% O2) or hypoxia (1% O2) at 37° C. for 24 hrs as was previously done (Wu BN, et al. Int J Immunopathol Pharmacol 24:925, 2011). The heart weight and body weight ratio (HW/BW) of the rats treated with one of SPAAX-1, SPAAX-1 RX complex, Sildenafil or Sildenafil RX complex each measured on the 21st hypoxic day. All animal care and the experimental protocols of this study were approved by the Animal Care and Use Committee of the Kaohsiung Medical University. Male Wistar rats (200-250 g), provided by the National Laboratory Animal Breeding and Research Center (Taipei, Taiwan), were housed under constant temperature and controlled illumination. Food and water were available ad libitum.
(§2) Whole right lung tissues of hypoxia-treated and untreated rats were isolated and cut into small strips and placed into an extraction buffer (Tris 10 mM, pH 7.0, NaCl 140 mM, PMSF 2 mM, DTT 5 mM, NP-40 0.5%, pepstatin A 0.05 mM and leupeptin 0.2 mM) for protein extraction, and then centrifuged at 12,500 g for 30 min. To measure the expression levels of the proteins, the total proteins were extracted and Western blotting analysis was performed as described previously (Bivalacqua T J, et al., 2013, TJ PLoSONE 8: e68028. doi:10.1371/journal. pone.0068028). Briefly, the protein extract was boiled to a ratio of 4:1 with a sample buffer (Tris 100 mM, pH 6.8, glycerol 20%, SDS 4% and bromophenol blue 0.2%). Electrophoresis was performed using 10% SDS-polyacrylamide gel (2 hr, 100 V, 40 mA, […] protein per lane). Separated proteins were transferred to PVDF membranes treated with 5% fat-free milk powder to block the nonspecific IgGs (90 min, 100 V) and incubated for one hour with a specific protein antibody. The blot was then incubated with anti-mouse or anti-goat IgG linked to alkaline phosphatase (1:1000) for 1 hr. Immunoreactive bands were visualized using horseradish peroxidase-conjugated secondary antibodies and subsequent electrochemiluminescence (ECL) detection (GE Healthcare Bio-Sciences Corp., Piscataway, N.J., U.S.A.). Mouse or rabbit monoclonal antibody of eNOS (Upstate, N.Y., U.S.A.), sGCα (Sigma-Adrich, CA, U.S.A., sGCβ (Santa Cruz, Calif., U.S.A.), PDE-5A (BD Tansduction, San Jose, Calif., U.S.A.), PKG (Calbiochem, San Diego, Calif., U.S.A.) ROCKII (Upstate, N.Y., U.S.A.), RhoA (Santa Cruze, Calif., U.S.A.) and the loading control protein β-actin (Sigma-Adrich, MO, U.S.A.) were used in our Western blot analysis.
(§3) The Western blotting analysis measurements were performed as per lung tissue.

eNOS [2] = test: Western blotting of eNOS expression in isolated rat pulmonary artery ring, short-term (acute) hypoxia or normoxia; format: cell-based; details: for eNOS expression, Pulmonary Artery Ring: acute hypoxia, Normoxia 100, Hypoxia 65.3 ± 7.8
Procedure: as §1, §2, §3

eNOS [3] = test: Western blotting of eNOS expression in rat carvenosus strip, acute hypoxia; format: cell-based; parameters: unit not given here
VEGF [4] = test: Western blotting of VEGF expression in rat carvenosus strip, acute hypoxia; format: cell-based; parameters: unit not given here
VEGF [5] = test: Western blotting of VEGF expression in isolated rat pulmonary artery ring, short-term (acute) hypoxia; format: cell-based
Procedure: as §1, §2, §3

ROCK II [6] = test: Cigarette smoking-induced Rho/ROCK activation of rat pulmonary artery ring; format: in vivo; details: Nebulization (2.5 mM), Non-Smoking control 100, Smoking 540 ± 28
ROCK II [7] = test: as above; format: in vivo; details: Intraperitoneal (100 mg/kg) 1 h prior to smoke exposure, Non-Smoking control 100, Smoking 530 ± 34
Procedure: Intraperitoneal SAA complex (100 mg/kg in 200 μl of the solution) or 200 μl of saline (control) were given to animals through intraperitoneal injection 1 h prior to smoke exposure.
as §2

ROCK II [8] = test: Streptozotocin (STZ) induced RhoA/ROCKII activation of rat carvenosa tissue; format: in vivo; details: STZ model; 2.5 mg/kg; Control 100, STZ 142 ± 28
Procedure: (§4) Electrophoresis was performed using 10% SDS-polyacrylamide gel (2 hr, 100 V, 40 mA, […] protein per lane). Separated proteins were transferred to PVDF membranes treated with 5% fat-free milk powder to block the nonspecific IgGs (90 min, 100 V) and incubated for one hour with a specific protein antibody. The blot was then incubated with anti-mouse or anti-goat IgG linked to alkaline phosphatase (1:1000) for 1 hr. Immunoreactive bands were visualized using horseradish peroxidase-conjugated secondary antibodies and subsequent electrochemiluminescence (ECL) detection (GE Healthcare Bio-Sciences Corp., Piscataway, N.J., U.S.A.). Mouse or rabbit monoclonal antibody of eNOS (Upstate, N.Y., U.S.A.), sGCα (Sigma-Adrich, CA, U.S.A., sGCβ (Santa Cruz, Calif., U.S.A.), PDE-5A (BD Tansduction, San Jose, Calif., U.S.A.), PKG (Calbiochem, San Diego, Calif., U.S.A.) ROCKII (Upstate, N.Y., U.S.A.), RhoA (Santa Cruze, Calif., U.S.A.) and the loading control protein β-actin (Sigma-Adrich, MO, U.S.A.) were used in our Western blot analysis.

eNOS [9] = test: Streptozotocin (STZ) induced eNOS down-regulation of rat carvenosa tissue; format: in vivo; details: STZ model; 2.5 mg/kg; Control 100, STZ 60 ± 7.3
Procedure: as §4

[10] = Normoxia 100, Hypoxia 62.4 ± 5.5
[11] = normoxia for 24 hrs, 10 μm, versus non-treated controls

Compound	ROCK II expression, Pulmonary Artery Ring (ROCK II [1])	eNOS expression, Pulmonary Artery Ring (eNOS [2])	eNOS expression, Carvenosus (eNOS [3]; [10])	VEGF expression, Carvenosus (VEGF [4]; Normoxia 100, Hypoxia 170 ± 15)	VEGF expression, Pulmonary Artery Ring (VEGF [5]; Normoxia 100, Hypoxia 175 ± 14)	other results
CC(=O)O.CCCc1nn(C)c2c(=O)[nH]c(-c3cc(S(=O)(=O)N4CCN(C)CC4)ccc3OCC)nc12 [Reagent 1012, Sildenafil acetate complex]	270 ± 27	70 ± 13	–	–	–	–
CCCCCCCC/C=C\CCCCCCCC(=O)O.COc1ccccc1N1CCN(CCn2cnc3c2c(=O)n(C)c(=O)n3C)CC1 [Example 7, 7-[2-[4-(2-methoxyphenyl)piperazinyl]ethyl]-1,3-dimethylxanthine oleate complex]	190 ± 7.7	180 ± 7.6	122 ± 4.9	84 ± 8.8	91 ± 6.5	–
Cl.Cn1c(=O)c2c(ncn2CCN2CCN(c3ccccc3Cl)CC2)n(C)c1=O [Reagent 3, 7-[2-[4-(2-chlorophenyl)piperazinyl]ethyl]-1,3-dimethylxanthine HCl Complex]	255 ± 4.6	136 ± 4.6	102 ± 5.8	110 ± 9.4	108 ± 8.2	ROCK II of pulmonary artery ring (ROCK II [6]): 76 ± 6.2; ROCK II of pulmonary artery ring (ROCK II [7]): 76 ± 5.3; ROCK II, Carvanosus tissue (ROCK II [8]): 40 ± 5.2%; eNOS, Carvanosus tissue (eNOS [9]): 140 ± 5.3%
C[C@@H](N)[C@H]1CC[C@H](C(=O)Nc2ccncc2)CC1 [Reagent Y27632, Y27632, reference compound]	–	–	–	–	–	expression of ROCK II in isolated hypoxic pulmonary artery (ROCK II [1]; hypoxia for 24 hrs, versus control level in normoxia, hypoxia 180±10.2%): 150±13.1%; Expression of ROCK II in isolated pulmonary artery ring (ROCK II [1]; [11]): 67.5±14.8%; eNOS in isolated hypoxic pulmonary artery (eNOS [2]; hypoxia for 24 hrs, versus control level in normoxia, hypoxia 60±8.3%): 50±4.7%; expression of eNOS in isolated pulmonary artery ring (eNOS [2]; [11]): 114.1±12.3%
CCCc1nn(C)c2c(=O)[nH]c(-c3cc(S(=O)(=O)N4CCN(C)CC4)ccc3OCC)nc12.O=C(O)C=CC(=O)O [Reagent 1008, Sildenafil maleate complex]	–	–	45 ± 4.2	–	–	ROCK II expression, Pulmonary Artery Ring (ROCK II [1]; listed as 1008): 150 ± 14; VEGF expression, Carvenosus (VEGF [4]; Normoxia 100, Hypoxia 170 ± 15, listed as 1008): 116 ± 12
CCCCCCCCC=CCCCCCCCC(=O)O.CCCc1nn(C)c2c(=O)[nH]c(-c3cc(S(=O)(=O)N4CCN(C)CC4)ccc3OCC)nc12 [Reagent 1013, Sildenafil oleate complex]	–	104 ± 18	–	–	–	–
CCCc1nn(C)c2c(=O)[nH]c(-c3cc(S(=O)(=O)N4CCN(C)CC4)ccc3OCC)nc12.Cl [Reagent 1003, Sildenafil HCl complex]	–	116 ± 7.2	110 ± 5.2	105 ± 16	94 ± 9.8	ROCK II of pulmonary artery ring (ROCK II [6]): 62 ± 4.8; ROCK II of pulmonary artery ring (ROCK II [7]): 82 ± 7.6
CC(O)C(=O)O.CCCc1nn(C)c2c(=O)[nH]c(-c3cc(S(=O)(=O)N4CCN(C)CC4)ccc3OCC)nc12 [Reagent 1011, Sildenafil lactate complex]	310 ± 21	75 ± 13	46 ± 4.7	118 ± 16	133 ± 17	–
CCCc1nn(C)c2c(=O)[nH]c(-c3cc(S(=O)(=O)N4CCN(C)CC4)ccc3OCC)nc12.O=C(O)C(=O)O [Reagent 1015, Sildenafil oxalate complex]	395 ± 27	68 ± 15	65 ± 4.7	–	–	–
CCCc1nn(C)c2c(=O)[nH]c(-c3cc(S(=O)(=O)N4CCN(C)CC4)ccc3OCC)nc12.O=C(O)C=CC(=O)O [Reagent 1010, Sildenafil fumarate complex]	–	–	–	–	–	ROCK II expression, Pulmonary Artery Ring (ROCK II [1]; listed as 1010): 125 ± 13; VEGF expression, Carvenosus (VEGF [4]; Normoxia 100, Hypoxia 170 ± 15, listed as 1010): 117 ± 17
CCCc1nn(C)c2c(=O)[nH]c(-c3cc(S(=O)(=O)N4CCN(C)CC4)ccc3OCC)nc12.O=C(O)CC(O)C(=O)O [Reagent 1009, Sildenafil malate complex]	120 ± 12	–	–	118 ± 18	–	–
CCCc1nn(C)c2c(=O)[nH]c(-c3cc(S(=O)(=O)N4CCN(C)CC4)ccc3OCC)nc12.O=C1OC(C(O)CO)C(O)=C1O [Reagent 1002, Sildenafil DL-ascorbate complex]	–	–	–	–	–	ROCK II expression, Pulmonary Artery Ring (ROCK II [1]; listed as 1002): 211 ± 12.5; eNOS expression, Carvenosus (eNOS [3]; Normoxia 100, Hypoxia 62.4 ± 5.5, listed as 1002): 125 ± 5.4; VEGF expression, Carvenosus (VEGF [4]; Normoxia 100, Hypoxia 170 ± 15, listed as 1002): 90 ± 7.9; eNOS expression, Pulmonary Artery Ring (eNOS [2]; listed as 1002): 130 ± 6.4; VEGF expression, Pulmonary Artery Ring (VEGF [5]; Normoxia 100, Hypoxia 175 ± 14, listed as 1002): 90 ± 5.8
CCCc1nn(C)c2c(=O)[nH]c(-c3cc(S(=O)(=O)N4CCN(C)CC4)ccc3OCC)nc12.O=C(O)c1ccccc1O [Reagent 1016, Sildenafil-Salicylate complex]	178 ± 19	165 ± 16	110 ± 4.7	90 ± 7.5	90 ± 5.2	–
Cn1c(=O)c2c(ncn2CCN2CCN(c3ccc([N+](=O)[O-])cc3)CC2)n(C)c1=O.O=C1O[C@H]([C@@H](O)CO)C(O)=C1O [Example 8, 7-[2-[4-(4-nitrophenyl)piperazinyl]ethyl]-1,3-dimethyl-xanthine ascorbate complex]	150 ± 14	80 ± 3.2	45 ± 4.2	116 ± 12	122 ± 16	–
Sildenafil Arginate complex [Reagent 1017]	182 ± 21	180 ± 12	124 ± 11	90 ± 8.2	90 ± 6.4	–

From patent US20150306107A1, “SAA Derivative Compound Restores eNOS And Inhibits Oxidative Stress-Induced A Diseases In Hypoxia” (JANSFAT BIOTECHNOLOGY CO., LTD., priority 2014, published 2015)
